Values of other authors in patent publication US20120128784A1, “COMPOSITION CONTAINING BEE VENOM AS AN ACTIVE INGREDIENT FOR PREVENTING AND TREATING ACNE” (Dong Sung Pharm. Co., Ltd., priority 2009, published 2012).

Test system: edema
Details: injected into arthritis patients

In the case of `CC[C@H](C)[C@H](NC(=O)CN)C(=O)NCC(=O)N[C@@H](C)C(=O)N[C@H](C(=O)N[C@@H](CC(C)C)C(=O)N[C@@H](CCCCN)C(=O)N[C@H](C(=O)N[C@@H](CC(C)C)C(=O)N[C@H](C(=O)N[C@H](C(=O)NCC(=O)N[C@@H](CC(C)C)C(=O)N1CCC[C@H]1C(=O)N[C@@H](C)C(=O)N[C@@H](CC(C)C)C(=O)N[C@H](C(=O)N[C@@H](CO)C(=O)N[C@@H](Cc1c[nH]c2ccccc12)C(=O)N[C@H](C(=O)N[C@@H](CCCCN)C(=O)N[C@@H](CCCNC(=N)N)C(=O)N[C@@H](CCCCN)C(=O)N[C@@H](CCCNC(=N)N)C(=O)N[C@@H](CCC(N)=O)C(=O)N[C@@H](CCC(N)=O)C(N)=O)[C@@H](C)CC)[C@@H](C)CC)[C@@H](C)O)[C@@H](C)O)C(C)C)C(C)C` [melittin], the inhibition of edema is listed as “edema was significantly inhibited”.
